In US20080167330A1, “Carbamoylsulphoximides as protein kinase inhibitors” (priority 2006, published 2008):

Assays:
Type in all cases: biochemical
CDK2/CycE = target: T1, CDK2/CycE (Homo sapiens, UniProt P24941); assay: CDK2/CycE kinase assay; details: 0.5 μM ATP
T1 construct: GST; purchased ProQinase GmbH, Freiburg; host or cells: baculovirus-infected insect cells (Sf9)
Procedure: Recombinant CDK2- and CycE-GST fusion proteins, purified from baculovirus-infected insect cells (Sf9), were purchased from ProQinase GmbH, Freiburg. The histone IIIS used as kinase substrate was purchased from Sigma. CDK2/CycE (1.25 ng/μL) was incubated in the presence of various concentrations of test substances (0 μM, and within the range 0.01-100 μM) in 40 μL of assay buffer [50 mM Tris/HCl pH 8.0, 10 mM MgCl2, 0.1 mM Na ortho-vanadate, 1.0 mM dithiothreitol, 0.5 μM ATP, 0.2% PEG20000, 10 μM histone IIIS, 0.2 μCi/measurement point ^33P-gamma ATP, 0.05% NP40, 1.25% dimethyl sulphoxide] at 22° C. for 10 min. The reaction was stopped by adding EDTA solution (250 mM, pH 8.0, 15 μl/measurement point).
15 μl of each reaction mixture were loaded onto P30 filter strips (from Wallac), and non-incorporated ^33P-ATP was removed by washing the filter strips three times in 0.5% strength phosphoric acid for 10 min each time.
After the filter strips had been dried at 70° C. for 1 hour, the filter strips were covered with scintillator strips (MeltiLex™ A, from Wallac) and baked at 90° C. for 1 hour. The amount of incorporated ^33P (substrate phosphorylation) was determined by scintillation measurement in a gamma radiation counter (Wallac).
The measured data were normalized to 0% inhibition (enzyme reaction without inhibitor) and 100% inhibition (all assay components except enzyme). The IC50 values were determined by means of a 4-parameter fit using the company's own software.

human Aurora-C = target: T2, human Aurora-C (Homo sapiens, UniProt Q9UQB9); assay: Aurora-C kinase assay (HTRF); details: 10 μM ATP
T2 construct: GST; made in house; host or cells: transiently transfected HEK293 cells
T2 sequence (Q9UQB9 1-309): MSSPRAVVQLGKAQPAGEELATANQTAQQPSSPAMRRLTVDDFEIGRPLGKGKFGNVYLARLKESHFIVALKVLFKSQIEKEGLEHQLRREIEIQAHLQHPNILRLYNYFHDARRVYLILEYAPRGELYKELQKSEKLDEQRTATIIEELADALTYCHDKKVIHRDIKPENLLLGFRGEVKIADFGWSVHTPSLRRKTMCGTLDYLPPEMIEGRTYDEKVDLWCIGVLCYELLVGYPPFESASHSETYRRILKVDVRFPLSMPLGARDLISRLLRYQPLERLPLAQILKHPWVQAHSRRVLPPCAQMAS
Procedure: The Aurora-C inhibitory activity of the substances of this invention was measured in the Aurora-C-HTRF assay (HTRF=Homogeneous Time Resolved Fluorescence) described in the following paragraphs.
Recombinant fusion protein of GST and human Aurora-C was expressed in transiently transfected HEK293 cells and purified by affinity chromatography on glutathione-Sepharose. The substrate used for the kinase reaction was the biotinylated peptide biotin-Ttds-FMRLRRLSTKYRT (C terminus in amide form) which can be purchased for example from JERINI Peptide Technologies (Berlin). Aurora-C was incubated in the presence of various concentrations of test substances in 5 μL of assay buffer [25 mM Hepes/NaOH pH 7.4, 0.5 mM MnCl2, 2.0 mM dithiothreitol, 0.1 mM sodium orthovanadate, 10 μM adenosine triphosphate (ATP), […] substrate, 0.01% (v/v) TritonX-100 (Sigma), 0.05% (w/v) bovine serum albumin (BSA), 1% (v/v) dimethyl sulphoxide] at 22° C. for 60 min. The concentration of Aurora-C was adapted to the particular activity of the enzyme and adjusted so that the assay operated in the linear range. Typical concentrations were in the region of 0.3 nM. The reaction was stopped by adding 5 μl of a solution of HTRF detection reagents (0.2 μM streptavidin-XLent and 1.4 nM anti-phospho-(Ser/Thr)-Akt substrate-Eu-cryptate (Cis biointernational, France, product No. 61P02KAE), a Europium-cryptate-labelled phospho-(Ser/Thr)-Akt substrate antibody [product #9611B, Cell Signaling Technology, Danvers, Mass., USA]) in aqueous EDTA solution (40 mM EDTA, 400 mM KF, 0.05% (w/v) bovine serum albumin (BSA) in 25 mM HEPES/NaOH pH 7.0).
The resulting mixture was incubated at 22° C. for 1 h in order to allow formation of a complex of the biotinylated phosphorylated substrate and the detection reagents. The amount of phosphorylated substrate was then estimated by measuring the resonance energy transfer from the anti-phospho-(Ser/Thr)-Akt substrate-Eu cryptate to the streptavidin-XLent. For this purpose, the fluorescence emissions at 620 nm and 665 nm after excitation at 350 nm were measured in an HTRF measuring instrument, e.g. a Rubystar (BMG Labtechnologies, Offenburg, Germany) or a Viewlux (Perkin-Elmer). The ratio of the emissions at 665 nm and at 622 nm was taken as a measure of the amount of phosphorylated substrate. The data were normalized (enzymic reaction without inhibitor=0% inhibition, all other assay components but no enzyme=100% inhibition) and IC50 values were calculated with a 4-parameter fit using an inhouse software.

[1] = test system: Aurora C, CDK1/CycB, CDK2/CycE, KDR (VEGFR2); assay: various kinase assays taken together (selectivity profile); details: comparison across the kinase assays, in words
Procedure: The compounds of Examples 1 to 22 were tested for their inhibitory effect in the various kinase assays and in a proliferation assay with MCF7 human breast tumour cells (Tab. 1). […] Exemplary compounds 1-8, 10-12, 15, 17-20 inhibit the proliferation of human MCF7 breast tumour cells with half-maximum concentrations in the submicromolar range.

Compound | IC50 (CDK2/CycE) [nM] | IC50 (human Aurora-C) [nM] | selectivity profile [1]
C[C@@H](O)[C@@H](C)Oc1nc(Nc2cccc(NC(=O)N=S(C)(C)=O)c2)ncc1Br [Example 6, N-({3-[(5-Bromo-4-{[(1R,2R)-2-hydroxy-1-methylpropyl]oxy}pyrimidin-2-yl)amino]phenyl}carbamoyl)-S,S-dimethylsulphoximide] | 7 | 73 | 
C[C@@H](O)[C@@H](C)Nc1nc(Nc2ccc(F)c(NC(=O)N=S(C)(C)=O)c2)ncc1Br [Example 7, N-({5-[(5-Bromo-4-{[(1R,2R)-2-hydroxy-1-methylpropyl]amino}pyrimidin-2-yl)amino]-2-fluorophenyl}carbamoyl)-S,S-dimethylsulphoximide] | 3 | 370 | 
Cc1ccc(Nc2ncc(Br)c(N[C@H](C)[C@@H](C)O)n2)cc1NC(=O)N=S(C)(C)=O [Example 8, N-({5-[(5-Bromo-4-{[(1R,2R)-2-hydroxy-1-methylpropyl]amino}pyrimidin-2-yl)amino]-2-methylphenyl}carbamoyl)-S,S-dimethylsulphoximide] | 12 | 810 | 
COc1ccc(Nc2ncc(Br)c(N[C@H](C)[C@@H](C)O)n2)cc1NC(=O)N=S(C)(C)=O [Example 10, N-({5-[(5-Bromo-4-{[(1R,2R)-2-hydroxy-1-methylpropyl]amino}pyrimidin-2-yl)amino]-2-methoxyphenyl}carbamoyl)-S,S-dimethylsulphoximide] | 20 | 410 | 
COc1cc(Nc2ncc(Br)c(N[C@H](C)[C@@H](C)O)n2)ccc1NC(=O)N=S(C)(C)=O [Example 11, N-({4-[(5-Bromo-4{[(1R,2R)-2-hydroxy-1-methylpropyl]amino}pyrimidin-2-yl)amino]-2-methoxyphenyl}carbamoyl)-S,S-dimethylsulphoximide] | 19 | 430 | 
C[C@@H](O)[C@@H](C)Nc1nc(Nc2ccc(Cl)c(NC(=O)N=S(C)(C)=O)c2)ncc1Br [Example 12, N-({5-[(5-Bromo-4-{[(1R,2R)-2-hydroxy-1-methylpropyl]amino}pyrimidin-2-yl)amino]-2-chlorophenyl}carbamoyl)-S,S-dimethylsulphoximide] | 9 | 1300 | 
C[C@@H](O)[C@@H](C)Nc1nc(Nc2ccc(NC(=O)N=S(C)(C)=O)cc2)ncc1C(F)(F)F [Example 15] | 9 | 150 | CDK-selective
C[C@@H](O)[C@@H](C)Nc1nc(Nc2cccc(C(=O)N=S(C)(C)=O)c2)ncc1Br [Example 17, N-{3-[(5-Bromo-4-{[(1R,2R)-2-hydroxy-1-methylpropyl]amino}pyrimidin-2-yl)amino]benzoyl}-S,S-dimethylsulphoximide] | 9 | 2000 | CDK-selective
C[C@@H](O)[C@@H](C)Nc1nc(Nc2ccc(C(=O)N=S(C)(C)=O)cc2)ncc1Br [Example 18, N-{4-[(5-Bromo-4-{[(1R,2R)-2-hydroxy-1-methylpropyl]amino}pyrimidin-2-yl)amino]benzoyl}-S,S-dimethylsulphoximide] | 9 | 280 | 
C[C@@H](Nc1nc(Nc2ccc(C(=O)N=S(C)(C)=O)cc2)ncc1Br)C(C)(C)O [Example 19, N-{4-[(5-Bromo-4-{[(R)-2-hydroxy-1,2-dimethylpropyl]amino}pyrimidin-2-yl)amino]benzoyl}S,S-dimethylsulphoximide] | 11 | 740 | 
C[C@@H](O)[C@@H](C)Oc1nc(Nc2ccc(C(=O)N=S(C)(C)=O)cc2)ncc1Br [Example 20, N-{4-[(5-Bromo-4-{[(1R,2R)-2-hydroxy-1-methylpropyl]oxy}pyrimidin-2-yl)amino]benzoyl}-S,S-dimethylsulphoximide] | 12 | 310 | 

Other lines, results leading:

IC50 (CDK2/CycE) [nM] | IC50 (human Aurora-C) [nM] | selectivity profile [1] | Compound
9 | 160 |  | C[C@@H](Nc1nc(Nc2cccc(NC(=O)N=S(C)(C)=O)c2)ncc1Br)C(C)(C)O [Example 1, N-({3-[(5-Bromo-4-{[(R)-2-hydroxy-1,2-dimethylpropyl]amino}pyrimidin-2-yl)amino]phenyl}carbamoyl)-S,S-dimethylsulphoximide]
10 | 400 |  | C[C@@H](Nc1nc(Nc2ccc(NC(=O)N=S(C)(C)=O)cc2)ncc1Br)C(C)(C)O [Example 2, N-({4-[(5-Bromo-4-{[(R)-2-hydroxy-1,2-dimethylpropyl]amino}pyrimidin-2-yl)-amino]phenyl}carbamoyl)-S,S-dimethylsulphoximide]
5 | 280 |  | C[C@@H](O)[C@@H](C)Nc1nc(Nc2ccc(NC(=O)N=S(C)(C)=O)cc2)ncc1Br [Example 3, N-({4-[(5-Bromo-4-{[(1R,2R)-2-hydroxy-1-methylpropyl]amino}pyrimidin-2-yl)amino]phenyl}carbamoyl)-S,S-dimethylsulphoximide]
5 | 420 |  | C[C@@H](O)[C@@H](C)Oc1nc(Nc2ccc(NC(=O)N=S(C)(C)=O)cc2)ncc1Br [Example 4, N-({4-[(5-Bromo-4-{[(1R,2R)-2-hydroxy-1-methylpropyl]oxy}pyrimidin-2-yl)amino]phenyl}carbamoyl)-S,S-dimethylsulphoximide]
5 | 54 |  | C[C@@H](O)[C@@H](C)Nc1nc(Nc2cccc(NC(=O)N=S(C)(C)=O)c2)ncc1Br [Example 5, N-({3-[(5-Bromo-4-{[(1R,2R)-2-hydroxy-1-methylpropyl]amino}pyrimidin-2-yl)amino]phenyl}carbamoyl)-S,S-dimethylsulphoximide]
330 | 400 | preferential KDR inhibition | CS(C)(=O)=NC(=O)Nc1ccc(Nc2ncc(Br)c(Nc3ccc4[nH]cnc4c3)n2)cc1 [Example 16, N-[(4-{[4-(1H-Benzimidazol-5-ylamino)-5-bromopyrimidin-2-yl]amino}phenyl)-carbamoyl]-S,S-dimethylsulphoximide]
